From patent publication US8507514B2, “Hydrazide compound and use of the same in pest control” (Sumitomo Chemical Company, Limited, priority 2009, dated 2013)

Key:
Musca domestica = test: Test Example 1: Musca domestica filter paper/sucrose bait test; assay type: in vivo; conditions: 500 ppm test solution, 0.7 ml on filter paper with sucrose bait, 10 female imagoes, after 24 hours, read-out: pest death rate
Method: (§1) Formulations of some compounds of the present invention were obtained according to Formulation Example 5. The formulation was diluted with water to prepare a test solution having 500 ppm of the active ingredient.
A filter paper having a diameter of 5.5 cm was spread on the bottom of a polyethylene cup having a diameter of 5.5 cm and 0.7 ml of the test solution was added dropwise onto the filter paper. As a bait, 30 mg of sucrose was uniformly placed on the filter paper. Into the polyethylene cup, 10 female imagoes of Musca domestica were released and the cup was sealed with a lid. After 24 hours, the number of surviving or dead Musca domestica was counted and a pest death rate was calculated according to the following equation. Pest death rate(%)=(Number of dead imagoes/Number of tested imagoes)×100

Spodoptela litura = test: Test Example 4: Spodoptela litura larvae on treated artificial diet; assay type: in vivo; conditions: 144 h; 500 ppm test solution, 2 mL on artificial diet Insecta LF; 5 fourth instar larvae; after 6 days; read-out: pest death rate
Method: as §1
A filter paper having a diameter of 5.5 cm was spread on the bottom of a polyethylene cup having a diameter of 5.5 cm. Insecta LF (manufactured by NOSAN CORPORATION), an artificial diet, was sliced to 6 mm in thickness, cut into half, and then placed on the filter paper. Then, 2 mL of the test solution was poured into the polyethylene cup. After the test solution was air-dried, 5 fourth instar larvae of Spodoptela litura were released into the polyethylene cup and the cup was sealed with a lid. After 6 days, the number of surviving or dead Spodoptela litura was counted and a pest death rate was calculated according to the following equation. Pest death rate(%)=(Number of dead larvae/Number of tested larvae)×100

Compound	pest or weed control at 500 ppm (Musca domestica)	pest or weed control at 500 ppm (Spodoptela litura)
CC(=O)NN(C(=O)OC(C)(C)C)c1cccc(C2=NOC(c3cc(Cl)cc(Cl)c3)(C(F)(F)F)C2)c1 (stereo not shown) [(1)]	100%	≥ 80%
CC(=O)NN(C)c1cccc(C2=NOC(c3cc(Cl)cc(Cl)c3)(C(F)(F)F)C2)c1 (stereo not shown) [(5)]		≥ 80%
O=C(CC(F)(F)F)NNc1cccc(C2=NOC(c3cc(Cl)cc(Cl)c3)(C(F)(F)F)C2)c1 (stereo not shown) [(7)]	100%	
Cc1ccc(C2=NOC(c3cc(Cl)cc(Cl)c3)(C(F)(F)F)C2)cc1NNC(=O)CC(F)(F)F (stereo not shown) [(8)]	100%	
O=C(CC(F)(F)F)NNc1cc(C2=NOC(c3cc(Cl)cc(Cl)c3)(C(F)(F)F)C2)ccc1F (stereo not shown) [(10)]	100%	
O=C(CC(F)(F)F)NNc1cc(C2=NOC(c3cc(Cl)cc(Cl)c3)(C(F)(F)F)C2)ccc1Cl (stereo not shown) [(11)]	100%	
CC(C)CC(=O)NNc1cc(C2=NOC(c3cc(Cl)cc(Cl)c3)(C(F)(F)F)C2)ccc1Cl (stereo not shown) [(15)]	100%	
CC(C)(C)C(=O)NNc1cc(C2=NOC(c3cc(Cl)cc(Cl)c3)(C(F)(F)F)C2)ccc1Cl (stereo not shown) [(23)]	100%	
O=C(Cc1ccccc1)NNc1cc(C2=NOC(c3cc(Cl)cc(Cl)c3)(C(F)(F)F)C2)ccc1Cl (stereo not shown) [(26)]		≥ 80%
O=C(CCCBr)NNc1cc(C2=NOC(c3cc(Cl)cc(Cl)c3)(C(F)(F)F)C2)ccc1Cl (stereo not shown) [(34)]		≥ 80%
O=C(CCCC(F)(F)F)NNc1cc(C2=NOC(c3cc(Cl)cc(Cl)c3)(C(F)(F)F)C2)ccc1Cl (stereo not shown) [(36)]	100%	≥ 80%
COCC(=O)NNc1cc(C2=NOC(c3cc(Cl)cc(Cl)c3)(C(F)(F)F)C2)ccc1Cl (stereo not shown) [(38)]	100%	≥ 80%
CC(C)(CCl)C(=O)NNc1cc(C2=NOC(c3cc(Cl)cc(Cl)c3)(C(F)(F)F)C2)ccc1Cl (stereo not shown) [(40)]	100%	≥ 80%
CC(=O)N(NC(=O)CCC(F)(F)F)c1cc(C2=NOC(c3cc(Cl)cc(Cl)c3)(C(F)(F)F)C2)ccc1Cl (stereo not shown) [(53)]		≥ 80%
COCC(=O)NN(C(=O)c1ccccc1)c1cc(C2=NOC(c3cc(Cl)cc(Cl)c3)(C(F)(F)F)C2)ccc1Cl (stereo not shown) [(57)]		≥ 80%
